Laboratory results published in patent US20180015070A1, “METHODS AND COMPOSITIONS FOR UPREGULATING ENDOGENOUS ANTIOXIDANT SYSTEMS” (USANA Health Sciences, Inc., priority 2016, published 2018).
Where two headings read alike, the source gives them in different places. Marks after values point to notes of the source that are not given here.

Key:
human Nrf2 = assay: Nrf2 reporter assay, agonist mode (native receptor, ARE-luciferase, CV1); format: cell-based; settings: for agonist activity against human Nrf2: at the concentrations tested
[1] = test system: C. elegans strain CB5586 worms; assay: phenotypic lifespan screening with C. elegans; format: in vivo; settings: for anti-ageing activity / effect on chronological lifespan: over the concentrations tested; for population age in days at 25% mortality: DMSO control 11; for population age in days at 50% mortality: DMSO control 14; for population age in days at 75% mortality: DMSO control 16
Description: Dilutions of the test formulations were applied to individual populations of C. elegans and the lifespan of each population was monitored. Any changes in the lifespan of an individual population compared to a control population were recorded and correlated to the respective test formulation (N356 or N357) and the respective dilution (0.1 mg/ml, 1 mg/ml, and 10 mg/ml).
The N356 and N357 formulations were each prepared as individual 100 mg/ml stock solutions in dimethyl sulfoxide (DMSO). Serial dilutions of each stock solution were then prepared at 0.1 mg/ml, 1 mg/ml, and 10 mg/ml in DMSO. Control solutions of DMSO only were also prepared. Synchronous aged adult populations of C. elegans strain CB5586 worms were prepared. The CB5586 strain comprises a pharyngeal GFP (green fluorescent protein) tag and a mutation in the bus-5 gene. The pharyngeal GFP tag allows for fluorescent images of the worm populations to be taken. The mutation in the bus-5 gene causes the loss of normal cuticle antigens that permits the cuticle of the worms to become permeable to the test formulations and allow direct uptake of the test formulations to avoid interaction of the test formulations with protective mechanisms of the gut channel. Each serial dilution of each test formulation was added to a separate population of the prepared worms. The control solutions were also added to separate populations of the prepared worms. The populations of the prepared worms were then maintained on standard nematode growth media (NGM) agar plates at 20° C. with sufficient food (Escherichia coli strain OP-50).
Each worm population was then monitored by fluorescent imaging to determine the number of living and dead worms as a function of time. The fluorescent imaging was analyzed by software that recognized and counted worms based on their fluorescent intensity compared to background fluorescence. […] The ability to distinguish between living and dead worms allowed the number of living worms and cumulative number of dead worms to be monitored against time. Worm populations from a selection of fluorescent images were manually checked to verify that the software had accurately counted the number of living and dead worms.
The counts of the living and dead worms as a function of time were then analyzed for each of the worm populations and used to prepare Kaplan-Meier survival curves and associated statistics for each of the worm populations. […] The median lifespan is shown as the length of time after the last mitotic division that 50% of the test population remains viable when compared to the control population. The maximum lifespan extension is shown as the length of time after the last mitotic division that 5% of the test population remains viable when compared to the control population.
The counts of the living and dead worms as a function of time and the Kaplan-Meier survival curves and the associated statistics were then analyzed for each of the worm populations. The analysis included determining mean and median lifespan. The analysis included a non-parametric test, the Log-Rank test, which compares two survival functions for the overall lifespan assay and provides a reliable p-value summarizing the whole experiment. The analysis also included Fisher's Exact Test that calculated the significance of survival function comparisons at multiple specific time points throughout the experiment, rather than for the overall lifespan. The results of the analysis are shown below in Tables 10-17. […]

Nrf2 = Nrf2 signaling fluorescent reporter assay in human retinal epithelial cell line; format: cell-based; settings: for minimum inducing concentration (Nrf2): human retinal epithelial cell line
Description: The assays were carried out with a fluorescent reporter assay that utilized a human retinal epithelial cell line. The assays also included validation by RT-PCR (reverse transcription polymerase chain reaction) of Nrf2 target genes. The human retinal epithelial cell line was purchased from ATCC (American Type Cell Culture, Manassas, Va.) and was configured to function as a fluorescent reporter assay. Test solutions of each of the alpha lipoic acid, resveratrol, curcumin, EGCG, Olivol®, rutin, quercetin, and hesperetin were prepared by serial dilution. Control solutions were also prepared. Positive control solutions of a known Nrf2 agonist, L-sulphoraphane was also prepared. Each test solution was then assayed for Nrf2 signaling activity using the fluorescent reporter assay and compared to control assays. The positive control solutions were also tested.

[2] = test system: NF-κB reporter cells (HEK293); settings: human, 24 h
[3] = 10 mg/ml, compared to DMSO control
[4] = at 10 μM and 1 (unit not given)
[5] = 0.1 mg/ml, compared to DMSO control

## O=c1c(O)c(-c2ccc(O)c(O)c2)oc2cc(O)cc(O)c12 [Quercetin, 2-(3,4-dihydroxyphenyl)-3,5,7-trihydroxy-4H-chromen-4-one]
Human Nrf2
  agonist activity against human Nrf2: low-level agonist activity
[1]; [3]
  Statistically Significant Result: No statistical difference
[1]
  anti-ageing activity / effect on chronological lifespan: significant negative effect on chronological lifespan
Nrf2; 10 μM compared with 1 μM
  concentration giving more Nrf2 activation: more activation at the 1 μM concentration
Nrf2; [4]
  activation of Nrf2 against a control: demonstrated activation of Nrf2
Nrf2
  minimum inducing concentration (Nrf2): 0.55 µM
[2]; 23 μg/ml
  NF-κB % Live Cell: 97%
[2]; 68 μg/ml
  NF-κB % Live Cell: 77*** %

## Oc1ccc(/C=C/c2cc(O)cc(O)c2)cc1 [Resveratrol, 3,5,4′-trihydroxy-trans-stilbene]
[1]; [5]
  Statistically Significant Result: No statistical difference
[1]
  anti-ageing activity / effect on chronological lifespan: significant positive and dose dependent increase of chronological lifespan
Nrf2; [4]
  activation of Nrf2 against a control: demonstrated activation of Nrf2
[2]; 0.28 μg/ml
  NF-κB % Live Cell: 100%
[2]; 0.85 μg/ml
  NF-κB % Live Cell: 100%
[2]; 1.81 μg/ml
  NF-κB % Live Cell: 99%

## COc1cc(/C=C/C(=O)CC(=O)/C=C/c2ccc(O)c(OC)c2)ccc1O [Curcumin, curcumin]
Human Nrf2; 0.007 μg/ml active ingredient
  Nrf2 Fold-Activation: 1.6 fold
Human Nrf2; 0.022 μg/ml active ingredient
  Nrf2 Fold-Activation: 1.7 fold
Human Nrf2; 0.067 μg/ml active ingredient
  Nrf2 Fold-Activation: 1.4 fold
Human Nrf2; 0.20 μg/ml active ingredient
  Nrf2 Fold-Activation: 0.96 fold
Human Nrf2; 0.60 μg/ml active ingredient
  Nrf2 Fold-Activation: 1.0 fold
Human Nrf2; 1.81 μg/ml active ingredient
  Nrf2 Fold-Activation: 1.6 fold
[2]; 0.6 μg/ml
  NF-κB % Live Cell: 99%
[2]; 1.81 μg/ml
  NF-κB % Live Cell: 97%

## COc1ccc([C@@H]2CC(=O)c3c(O)cc(O[C@@H]4O[C@H](CO[C@@H]5O[C@@H](C)[C@H](O)[C@@H](O)[C@H]5O)[C@@H](O)[C@H](O)[C@H]4O)cc3O2)cc1O [N347, Hesperidin]
[1]; [5]
  % Change in Mean Lifespan: +10%
[1]; 0.1 mg/ml, vs DMSO control
  extension of lifespan: about 10%
[1]; 0.1 mg/ml
  population age in days at 25% mortality: 11 days
  population age in days at 50% mortality: 16 days
  population age in days at 75% mortality: 18 days
[1]; [3]
  Statistically Significant Result: No statistical difference
[1]; 10 mg/ml
  population age in days at 25% mortality: 11 days
  population age in days at 50% mortality: 14 days
  population age in days at 75% mortality: 18 days
[1]
  anti-ageing activity / effect on chronological lifespan: significant positive and dose dependent increase of chronological lifespan

## O=C(O)CCCCC1CCSS1 (racemic) [Alpha lipoic acid, alpha lipoic acid]
Human Nrf2; 1.42 μg/ml active ingredient
  Nrf2 Fold-Activation: 1.4 fold
Human Nrf2; 4.25 μg/ml active ingredient
  Nrf2 Fold-Activation: 1.4 fold
Human Nrf2; 12.7 μg/ml active ingredient
  Nrf2 Fold-Activation: 1.5 fold
Human Nrf2; 38.23 μg/ml active ingredient
  Nrf2 Fold-Activation: 1.5 fold
Human Nrf2; 114.70 μg/ml active ingredient
  Nrf2 Fold-Activation: 2.4 fold
Human Nrf2
  agonist activity against human Nrf2: very low-level agonist activity
[1]
  anti-ageing activity / effect on chronological lifespan: significant positive and dose dependent increase of chronological lifespan
Nrf2; at 100 μM and 30 (unit not given)
  activation of Nrf2 against a control: demonstrated activation of Nrf2
Nrf2
  minimum inducing concentration (Nrf2): 1.75 µM
[2]; 1.42 μg/ml
  NF-κB % Live Cell: 100%

## C[C@@H]1O[C@@H](OC[C@H]2O[C@@H](Oc3c(-c4ccc(O)c(O)c4)oc4cc(O)cc(O)c4c3=O)[C@H](O)[C@@H](O)[C@@H]2O)[C@H](O)[C@H](O)[C@H]1O [Rutin, quercetin-3-O-rutinoside]
[2]; 1.11 μg/ml
  NF-κB % Live Cell: 99%
[2]; 3.3 μg/ml
  NF-κB % Live Cell: 98%
[2]; 30 μg/ml
  NF-κB % Live Cell: 97%

## COc1ccc([C@@H]2CC(=O)c3c(O)cc(O)cc3O2)cc1O [Hesperetin, (S)-2,3-Dihydro-5,7-dihydroxy-2-(3-hydroxy-4-methoxyphenyl)-4H-1-benzopyran-4-one]
Human Nrf2; 0.043 μg/ml active ingredient
  Nrf2 Fold-Activation: 1.4 fold
Human Nrf2; 0.389 μg/ml active ingredient
  Nrf2 Fold-Activation: 1.3 fold
Human Nrf2; 1.167 μg/ml active ingredient
  Nrf2 Fold-Activation: 1.5 fold
Human Nrf2; 3.5 μg/ml active ingredient
  Nrf2 Fold-Activation: 0.94 fold
[2]; 0.043 μg/ml
  NF-κB % Live Cell: 98%
[2]; 0.389 μg/ml
  NF-κB % Live Cell: 99%
[2]; 1.167 μg/ml
  NF-κB % Live Cell: 98%
[2]; 3.5 μg/ml
  NF-κB % Live Cell: 96%
